{
  "source": "paper PMC9235892",
  "about": "(Virulence, 2022)",
  "tested_on": "SARS-CoV-2 169 R",
  "type": "cell-based",
  "data": [
    {"smiles": "CN1CCN(C[C@H](O)CO[C@H]2CC[C@@]3(C)C(CCC4C3CC[C@]3(C)C(=O)CCC43)C2)CC1", "note": "(some centres unmarked) [LNB167]", "values": [
      {"measurement": "effect on viral load in 169 R-infected cultures (plaque assay)", "value": "no reduction in viral load"}
    ]},
    {"smiles": "CN1CCN(C[C@@H](O)CO[C@H]2CC[C@@]3(C)C(CCC4C3CC[C@]3(C)C(=O)CCC43)C2)CC1", "note": "(some centres unmarked) [LNB169]", "values": [
      {"measurement": "effect on viral load in 169 R-infected cultures (plaque assay)", "value": "no reduction in viral load"}
    ]}
  ]
}
